# Values of other authors as cited in patent US6955766B2, “Method for reducing harmful organisms in currents of water” (priority 1999, dated 2005).
# Tested on: zebra mussels
# Conditions: batchwise treatment of water
compound,measurement,value
CC(=O)OO [peroxyacetic acid],concentration necessary to achieve an acceptable mortality rate of the mussels in a sufficiently short time,≥ 10 mg/L
